From patent US7799809B2, “Carboxamide compounds and their use as calpain inhibitors” (Abbott GmbH & Co. KG, priority 2006, dated 2010)

Key:
Assay type in all cases: biochemical
cathepsin L = target: T1, cathepsin L (Homo sapiens, UniProt P07711); experiment: Cathepsin L enzyme inhibition in vitro (kinetic fluorescence assay); conditions: cathepsin L isolated from human liver vs calpain I
T1 construct: cathepsin L—isolated from human liver (Calbiochem #219402); purchased Calbiochem 219402; host or cells: human liver (tissue-derived)
In short: (§1)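 Kinetic fluorescence (ex 390/em 460 nm) at room temperature in 50 mM MES, 2 mM EDTA, 0.05% Brij 35, 2.5 mM L-cysteine, pH 6.0. Cathepsin B (liver, 0.25 nM) with 100 μM Z-Phe-Arg-AMC; cathepsin L (liver, 1 nM) with 2 μM Z-Phe-Arg-AMC; recombinant E. coli cathepsin S (0.5 nM) with 20 μM Z-Val-Val-Arg-AMC. Ki via Cheng-Prusoff.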

cathepsin B = target: T2, cathepsin B (Homo sapiens, UniProt P07858); experiment: Cathepsin B enzyme inhibition in vitro (kinetic fluorescence assay); conditions: cathepsin B isolated from human liver vs calpain I
T2 construct: cathepsin B—isolated from human liver (Calbiochem #219362); purchased Calbiochem 219362; host or cells: human liver (tissue-derived)
In short: as §1

cathepsin S = target: T3, cathepsin S (Homo sapiens, UniProt P25774); experiment: Cathepsin S enzyme inhibition in vitro (kinetic fluorescence assay); conditions: recombinant human cathepsin S vs calpain I
T3 construct: purchased Calbiochem 219343; host or cells: E. coli
In short: as §1

cathepsin K = target: T4, cathepsin K (Homo sapiens, UniProt P43235); experiment: Cathepsin K enzyme inhibition in vitro (kinetic fluorescence assay); conditions: cathepsin K activated from recombinant human procathepsin K vs calpain I
T4 construct: purchased Calbiochem 342001; host or cells: E. coli
T4 sequence (P43235 115-329): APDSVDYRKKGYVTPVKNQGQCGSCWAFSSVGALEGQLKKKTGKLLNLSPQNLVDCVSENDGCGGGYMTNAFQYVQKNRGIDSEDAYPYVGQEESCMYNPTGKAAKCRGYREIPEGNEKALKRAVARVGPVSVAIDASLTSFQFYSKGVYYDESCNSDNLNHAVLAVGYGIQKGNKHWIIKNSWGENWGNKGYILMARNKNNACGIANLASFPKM

T3 sequence (P25774 115-331): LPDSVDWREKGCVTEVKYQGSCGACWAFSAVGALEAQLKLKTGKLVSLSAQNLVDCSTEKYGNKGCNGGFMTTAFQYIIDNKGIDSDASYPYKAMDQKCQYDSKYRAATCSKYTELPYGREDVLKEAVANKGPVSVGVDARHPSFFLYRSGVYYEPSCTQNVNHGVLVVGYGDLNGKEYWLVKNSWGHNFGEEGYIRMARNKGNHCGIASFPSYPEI
T1 sequence (P07711 114-333): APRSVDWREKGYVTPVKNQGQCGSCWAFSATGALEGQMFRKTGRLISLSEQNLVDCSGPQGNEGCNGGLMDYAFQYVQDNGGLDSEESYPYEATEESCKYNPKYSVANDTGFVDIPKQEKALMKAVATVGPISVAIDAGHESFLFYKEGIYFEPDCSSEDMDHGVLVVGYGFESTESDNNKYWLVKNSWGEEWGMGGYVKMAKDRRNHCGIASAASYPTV

Structure (SMILES)	Sel cat. L: Ki(cathepsin L)/Ki(calpain) ratio (cathepsin L)	Sel cat. B: Ki(cathepsin B)/Ki(calpain) ratio (cathepsin B)	Sel cat. S: Ki(cathepsin S)/Ki(calpain) ratio (cathepsin S)	Sel cat. K: Ki(cathepsin K)/Ki(calpain) ratio (cathepsin K)
NC(=O)C(=O)C(Cc1ccccc1)NC(=O)c1cccnc1-n1ccc(-c2ccc(N3CCOCC3)cc2F)n1 (centres unmarked) [Example 102, N-[3-Amino-2,3-dioxo-1-(phenylmethyl)propyl]-2-[3-(2-fluoro-4-morpholin-4-ylphenyl)-1H-pyrazol-1-yl]pyridine-3-carboxamide]	++ (++ means a Ki(cathepsin L)/Ki(calpain) ratio of ≧50)	+ (+ means 10≦Ki(cathepsin B)/Ki(calpain)<30)	++ (++ means a Ki(cathepsin S)/Ki(calpain) ratio of ≧100)	++ (++ means a Ki(cathepsin K)/Ki(calpain) ratio of ≧30)
NC(=O)C(=O)C(Cc1ccccc1)NC(=O)c1cccnc1-n1ccc(C23CC4CC(CC(C4)C2)C3)n1 (centres unmarked) [Example 193, N-[3-Amino-2,3-dioxo-1-(phenylmethyl)propyl]-2-(3-tricyclo[3.3.1.1^3,7]dec-1-yl-1H-pyrazol-1-yl)pyridine-3-carboxamide]	++ (++ means a Ki(cathepsin L)/Ki(calpain) ratio of ≧50)	++ (++ means a Ki(cathepsin B)/Ki(calpain) ratio of ≧30)	++ (++ means a Ki(cathepsin S)/Ki(calpain) ratio of ≧100)	++ (++ means a Ki(cathepsin K)/Ki(calpain) ratio of ≧30)
NC(=O)C(=O)C(Cc1ccccc1)NC(=O)c1cccnc1-n1ccc(-c2ccc(F)cc2)n1 (centres unmarked) [Example 38, N-(3-Amino-1-benzyl-2,3-dioxopropyl)-2-[3-(4-fluorophenyl)-1H-pyrazol-1-yl]nicotinamide]	++ (++ means a Ki(cathepsin L)/Ki(calpain) ratio of ≧50)	+ (+ means 10≦Ki(cathepsin B)/Ki(calpain)<30)	++ (++ means a Ki(cathepsin S)/Ki(calpain) ratio of ≧100)	+ (+ means 10≦Ki(cathepsin K)/Ki(calpain)<30)
NC(=O)C(=O)C(Cc1ccc(OC(F)(F)F)cc1)NC(=O)c1cccnc1-n1ccc(-c2cccc(C(F)(F)F)c2)n1 (centres unmarked) [Example 134, N-[3-Amino-2,3-dioxo-1-({4-[(trifluoromethyl)oxy]phenyl}methyl)propyl]-2-{3-[3-(trifluoromethyl)phenyl]-1H-pyrazol-1-yl}pyridine-3-carboxamide]	+ (+ means 30≦Ki(cathepsin L)/Ki(calpain)<50)	++ (++ means a Ki(cathepsin B)/Ki(calpain) ratio of ≧30)	+ (+ means 50≦Ki(cathepsin S)/Ki(calpain)<100)	++ (++ means a Ki(cathepsin K)/Ki(calpain) ratio of ≧30)
COc1ccc(Cl)cc1-c1ccn(-c2ncccc2C(=O)NC(Cc2ccccc2)C(=O)C(N)=O)n1 (centres unmarked) [Example 131, N-[3-Amino-2,3-dioxo-1-(phenylmethyl)propyl]-2-{3-[5-chloro-2-(methyloxy)phenyl]-1H-pyrazol-1-yl}pyridine-3-carboxamide]	++ (++ means a Ki(cathepsin L)/Ki(calpain) ratio of ≧50)	++ (++ means a Ki(cathepsin B)/Ki(calpain) ratio of ≧30)	++ (++ means a Ki(cathepsin S)/Ki(calpain) ratio of ≧100)	++ (++ means a Ki(cathepsin K)/Ki(calpain) ratio of ≧30)
NC(=O)C(=O)C(Cc1ccccc1)NC(=O)c1cccnc1-n1cc2c(n1)-c1cc(Cl)ccc1OC2 (centres unmarked) [Example 140, N-[3-Amino-2,3-dioxo-1-(phenylmethyl)propyl]-2-(8-chlorochromeno[4,3-c]pyrazol-2(4H)-yl)pyridine-3-carboxamide]	++ (++ means a Ki(cathepsin L)/Ki(calpain) ratio of ≧50)	+ (+ means 10≦Ki(cathepsin B)/Ki(calpain)<30)	++ (++ means a Ki(cathepsin S)/Ki(calpain) ratio of ≧100)	++ (++ means a Ki(cathepsin K)/Ki(calpain) ratio of ≧30)
NC(=O)C(=O)C(Cc1ccccc1)NC(=O)c1cccnc1-n1ccc(-c2cc(C(F)(F)F)ccc2CN2CCOCC2)n1 (centres unmarked) [Example 163, N-[3-Amino-2,3-dioxo-1-(phenylmethyl)propyl]-2-{3-[2-(morpholin-4-ylmethyl)-5-(trifluoromethyl)phenyl]-1H-pyrazol-1-yl}pyridine-3-carboxamide]	+ (+ means 30≦Ki(cathepsin L)/Ki(calpain)<50)	+ (+ means 10≦Ki(cathepsin B)/Ki(calpain)<30)	++ (++ means a Ki(cathepsin S)/Ki(calpain) ratio of ≧100)	+ (+ means 10≦Ki(cathepsin K)/Ki(calpain)<30)
COc1ccc(CC(NC(=O)c2cccnc2-n2ccc(-c3ccc(F)cc3)n2)C(=O)C(N)=O)cc1 (centres unmarked) [Example 81, N-[3-Amino-1-(4-methoxybenzyl)-2,3-dioxopropyl]-2-[3-(4-fluorophenyl)-1H-pyrazol-1-yl]nicotinamide]	++ (++ means a Ki(cathepsin L)/Ki(calpain) ratio of ≧50)	+ (+ means 10≦Ki(cathepsin B)/Ki(calpain)<30)	++ (++ means a Ki(cathepsin S)/Ki(calpain) ratio of ≧100)	+ (+ means 10≦Ki(cathepsin K)/Ki(calpain)<30)
COc1ccc(CC(NC(=O)c2cccnc2-n2ccc(-c3ccc(F)cc3F)n2)C(=O)C(N)=O)cc1 (centres unmarked) [Example 97, N-(3-Amino-1-{[4-(methyloxy)phenyl]methyl}-2,3-dioxopropyl)-2-[3-(2,4-difluorophenyl)-1H-pyrazol-1-yl]pyridine-3-carboxamide]	++ (++ means a Ki(cathepsin L)/Ki(calpain) ratio of ≧50)	++ (++ means a Ki(cathepsin B)/Ki(calpain) ratio of ≧30)	++ (++ means a Ki(cathepsin S)/Ki(calpain) ratio of ≧100)	+ (+ means 10≦Ki(cathepsin K)/Ki(calpain)<30)
COc1ccc(CC(NC(=O)c2cccnc2-n2ccc(-c3ccc(F)cc3Cl)n2)C(=O)C(N)=O)cc1 (centres unmarked) [Example 111, N-(3-Amino-1-{[4-(methyloxy)phenyl]methyl}-2,3-dioxopropyl)-2-[3-(2-chloro-4-fluorophenyl)-1H-pyrazol-1-yl]pyridine-3-carboxamide]	++ (++ means a Ki(cathepsin L)/Ki(calpain) ratio of ≧50)	++ (++ means a Ki(cathepsin B)/Ki(calpain) ratio of ≧30)	++ (++ means a Ki(cathepsin S)/Ki(calpain) ratio of ≧100)	++ (++ means a Ki(cathepsin K)/Ki(calpain) ratio of ≧30)
NC(=O)C(=O)C(Cc1ccccc1)NC(=O)c1cccnc1-n1ccc(-c2ccccc2Cl)n1 (centres unmarked) [Example 54, N-(3-Amino-1-benzyl-2,3-dioxopropyl)-2-[3-(2-chlorophenyl)-1H-pyrazol-1-yl]nicotinamide]	++ (++ means a Ki(cathepsin L)/Ki(calpain) ratio of ≧50)	++ (++ means a Ki(cathepsin B)/Ki(calpain) ratio of ≧30)	++ (++ means a Ki(cathepsin S)/Ki(calpain) ratio of ≧100)	++ (++ means a Ki(cathepsin K)/Ki(calpain) ratio of ≧30)
NC(=O)C(=O)C(Cc1ccccc1)NC(=O)c1cccnc1-n1ccc(-c2ccc3c(c2)OC(F)(F)O3)n1 (centres unmarked) [Example 118, N-[3-Amino-2,3-dioxo-1-(phenylmethyl)propyl]-2-[3-(2,2-difluoro-1,3-benzodioxol-5-yl)-1H-pyrazol-1-yl]pyridine-3-carboxamide]	++ (++ means a Ki(cathepsin L)/Ki(calpain) ratio of ≧50)	++ (++ means a Ki(cathepsin B)/Ki(calpain) ratio of ≧30)	++ (++ means a Ki(cathepsin S)/Ki(calpain) ratio of ≧100)	+ (+ means 10≦Ki(cathepsin K)/Ki(calpain)<30)
NC(=O)C(=O)C(Cc1ccccc1)NC(=O)c1cccnc1-n1cc2c(n1)-c1ccccc1CC2 (centres unmarked) [Example 63, N-(3-Amino-1-benzyl-2,3-dioxopropyl)-2-(4,5-dihydro-2H-benzo[g]indazol-2-yl)nicotinamide]	++ (++ means a Ki(cathepsin L)/Ki(calpain) ratio of ≧50)	+ (+ means 10≦Ki(cathepsin B)/Ki(calpain)<30)	++ (++ means a Ki(cathepsin S)/Ki(calpain) ratio of ≧100)	+ (+ means 10≦Ki(cathepsin K)/Ki(calpain)<30)
NC(=O)C(=O)C(Cc1ccccc1)NC(=O)c1cccnc1-n1ccc(-c2ccc(C(F)(F)F)cc2)n1 (centres unmarked) [Example 60, N-(3-Amino-1-benzyl-2,3-dioxopropyl)-2-{3-[4-(trifluoromethyl)phenyl]-1H-pyrazol-1-yl}nicotinamide]	++ (++ means a Ki(cathepsin L)/Ki(calpain) ratio of ≧50)	+ (+ means 10≦Ki(cathepsin B)/Ki(calpain)<30)	+ (+ means 50≦Ki(cathepsin S)/Ki(calpain)<100)	+ (+ means 10≦Ki(cathepsin K)/Ki(calpain)<30)
